One data set relates to thyroid hormone receptor. Put plainly: Thyroid hormone activity assay, agonist mode. The format is cell-based. Conditions: for EC50: read-out: TR agonist EC50, GH3.TRE-Luc cells.
Data set [1] has as its target T1, Cif (Pseudomonas aeruginosa, UniProt A0A0H2ZD27). Put plainly: Fluorescent-based Cif inhibitory assay. In kind it is biochemical.
Data set [2] is described as follows: Solubility under Cif assay conditions. The format is physicochemical.
Data set [3] is described as follows: Human liver microsomal stability. In kind it is in vitro ADME. Conditions: liver microsomes.
Data set [4] concerns the target T1, Cif. Put plainly: Surface plasmon resonance binding to immobilized Cif.
In a further data set the target is T2, Human sEH (Homo sapiens, UniProt P34913).
T2 sequence (P34913 1-555): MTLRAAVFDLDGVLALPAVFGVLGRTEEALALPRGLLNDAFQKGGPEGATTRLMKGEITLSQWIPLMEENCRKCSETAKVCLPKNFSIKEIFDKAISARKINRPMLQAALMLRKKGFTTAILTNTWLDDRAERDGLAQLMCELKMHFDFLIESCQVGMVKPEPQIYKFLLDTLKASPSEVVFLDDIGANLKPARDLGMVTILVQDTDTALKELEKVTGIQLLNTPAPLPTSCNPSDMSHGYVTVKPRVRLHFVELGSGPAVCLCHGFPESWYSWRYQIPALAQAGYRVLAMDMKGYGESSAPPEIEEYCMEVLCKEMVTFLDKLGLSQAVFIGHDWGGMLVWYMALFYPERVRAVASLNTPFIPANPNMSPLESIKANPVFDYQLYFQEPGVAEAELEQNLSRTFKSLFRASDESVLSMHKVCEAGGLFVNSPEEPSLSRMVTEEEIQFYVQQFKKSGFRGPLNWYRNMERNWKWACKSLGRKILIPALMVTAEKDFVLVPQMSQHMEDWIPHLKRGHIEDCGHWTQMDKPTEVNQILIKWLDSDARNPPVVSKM
Kind of data set: biochemical.

The test system of a further data set is GH3.TRE-Luc cells. Put plainly: Cytotoxicity in GH3.TRE-Luc cells. In kind it is cell-based. Conditions: concentrations up to 10 μM.
Data set [5] concerns polarized monolayers of airway epithelial cells. Put plainly: Cytotoxicity in polarized airway epithelial monolayers. In kind it is cell-based. Conditions: concentrations up to 10 μM.
The next data set deals with CFTR. Conditions: from purified Cif protein and P. aeruginosa PA14; ref 5b; cited from earlier work.

Converted amounts (≈) assume the structure as drawn.

T1 sequence (A0A0H2ZD27 25-319 limits assumed): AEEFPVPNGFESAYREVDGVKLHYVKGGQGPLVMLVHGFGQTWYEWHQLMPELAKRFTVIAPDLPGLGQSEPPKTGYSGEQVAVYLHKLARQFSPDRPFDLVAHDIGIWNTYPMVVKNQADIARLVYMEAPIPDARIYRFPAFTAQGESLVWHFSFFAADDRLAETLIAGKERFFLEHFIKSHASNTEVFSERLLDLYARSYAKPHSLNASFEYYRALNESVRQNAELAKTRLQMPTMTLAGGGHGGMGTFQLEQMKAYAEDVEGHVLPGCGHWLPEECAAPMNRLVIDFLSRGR

Regarding `CCC(=O)Nc1cc(Br)c(Oc2ccc(O)c(C(C)C)c2)c(Br)c1` [Compound 1c], the “thyroid hormone activity (compounds with different R1)” value in the data set on thyroid hormone receptor is reported as “lowest thyroid hormone activity”.
For the molecule `CCOC(=O)CC(=O)Nc1cc(Br)c(Oc2cccc(C(C)C)c2)c(Br)c1` [Compound 1g], the Cif inhibitory activity result at Cif [1] (at 50 μM or 25 μM) is reported as “failed to show inhibitory activity”. Besides, the solubility (usually how much of the substance goes into solution per volume) in data set [2] was in the range of 50 to 100 µM (≈ 25 to 49.9 µg/mL).
The like results for `CCOC(=O)CC(=O)Nc1cc(Br)c(Oc2ccc(OC)c(C(C)C)c2)c(Br)c1` [Compound 1h] were, in that order, “failed to show inhibitory activity” and 25 to 50 µM (≈ 13.2 to 26.5 µg/mL).
Take `CCOC(=O)CC(=O)Nc1cc(Cl)c(Oc2ccc(O)cc2)c(Cl)c1` [Compound 1k]: on Cif [1] (at 50 μM), the Cif inhibitory activity result is given as “no inhibition”. This molecule had a solubility in data set [2] of 50 to 100 µM (≈ 19.2 to 38.4 µg/mL).
For `CCC(=O)Nc1cc(Cl)c(Oc2ccc(O)c(-c3ccccc3)c2)c(Cl)c1` [Compound 8a], in data set [3], the half-life (usually the time in which the quantity being followed falls by half) is more than 60 min.
On Cif [4], `CCC(=O)Nc1cc(Cl)c(Oc2ccc(O)c(-c3ccc(C(N)=O)cc3)c2)c(Cl)c1` [Compound 8c, 5′-(2,6-Dichloro-4-propionamidophenoxy)-2′-hydroxy-[1,1′-biphenyl]-4-carboxamide] showed a residence time of 0.0333 to 0.0667 min. Moreover, on Human sEH, the half-maximal inhibitory concentration (IC50) – broadly, the concentration that inhibits the measured activity by half – was approximately 8 µM. Moreover, the cytotoxicity entry (with GH3.TRE-Luc cells; in data set [5]) was “neither 8c nor 8h showed cytotoxicity” in each case. Moreover, the “increase in Cif inhibitory potency over lead compound” value (“increase in Cif inhibitory potency” below) at Cif [1] is on record as approximately 10 fold. Besides, in the data set on thyroid hormone receptor, the EC50 (commonly the concentration that produces a half-maximal response) was more than 10 µM.
Regarding `CCC(=O)Nc1cc(Cl)c(Oc2ccc(O)c(-c3ccc(NC(N)=O)cc3)c2)c(Cl)c1` [Compound 8h], the residence time on Cif [4] is 0.0333 to 0.0667 min. This molecule came in with an IC50 against Human sEH of approximately 8 µM. Also, the cytotoxicity entry (in the data set on GH3.TRE-Luc cells; in [5]) was “neither 8c nor 8h showed cytotoxicity” each time. Also, the “increase in Cif inhibitory potency” value at Cif [1] was approximately 10 fold. Besides, the EC50 in the data set on thyroid hormone receptor is more than 10 µM.
As for `CCC(=O)Nc1cc(Cl)c(Oc2ccc(O)c(-c3ccc(C(C)=O)cc3)c2)c(Cl)c1` [Compound 8j], at Cif [4], the residence time lay in the range of 0.0333 to 0.0667 min. Moreover, on Cif [1], the “increase in Cif inhibitory potency” value is approximately 10 fold. In addition, the concentration for a half-maximal effect (EC50) in the data set on thyroid hormone receptor is more than 10 µM.
For the molecule `O=C(O)Cc1cc(I)c(Oc2ccc(O)c(I)c2)c(I)c1` [tiratricol], the “protection of CFTR” value in the data set on CFTR is recorded as “protects CFTR”.

The record behind these values is article PMC4957648 (Journal of medicinal chemistry, 2016).
